Key:
CYP3A4 = conditions: cited from earlier work
CYP3A [1] = conditions: cited from earlier work
CYP3A [2] = conditions: by inhibiting CYP3A activity; cited from earlier work
[3] = Midazolam pharmacokinetics in rats after 7-day MFE or water pre-treatment; conditions: rat
[4] = Sprague Dawley, plasma, po, 15 mg/kg

Row | Structure (SMILES) | Inhibition of CYP3A4 activity (CYP3A4) | Inhibition of CYP3A activity in human liver microsomes (CYP3A [1]) | Effect on pharmacokinetics of nicardipine in rats (CYP3A [2]) | Tmax ([3]; Sprague Dawley, plasma, po) [min] | Cmax [3, 4] [µg/mL] | Tmax [3, 4] [min] | Cmax ([3]; midazolam 15 mg/kg oral, control (water pre-treatment 7 days)) [µg/mL] | AUC0−∞ higher in MFE pre-treatment group compared to control group ([3]; midazolam 15 mg/kg oral, no significant difference) [%]
1 | O=C(O[C@@H]1Cc2c(O)cc(O)cc2O[C@@H]1c1cc(O)c(O)c(O)c1)c1cc(O)c(O)c(O)c1 [EGCG, epigallocatechin gallate] | irreversibly inhibits | moderately inhibits | alters the pharmacokinetics of nicardipine | – | – | – | – | –
2 | Cc1ncc2n1-c1ccc(Cl)cc1C(c1ccccc1F)=NC2 [Midazolam] | – | – | – | 15 | 0.708 ± 0.091 | 30 | 0.919 ± 0.07 | 12

Source: article PMC12117050 (Scientific Reports, 2025)
